“And” between values parts separate entries of the source, which are not always exact repeats. Equal values may be shown once. Where no end group is shown, it is not given here. [ ]: non-standard residue; d: D form. βAla = NCCC(=O)O
Key:
[1] = tested on: rat model of cerebral ischemia (middle cerebral artery occlusion, MCAO); assay: MCAO rat cerebral ischemia model, blinded behavioral scoring 0-5 points (Example 9); assay type: in vivo, SD rats; conditions: 3 mg/kg tail vein; for Behavioral score, mean value / Behavioral score: 22-24 h after suturation, scale 0-5 points; for Behavioral score, mean value: mean of 6 rats
Experimental: (§1) In order to determine the application of the synthetic peptides provided by the present invention in neurological diseases, the present invention uses SD rats as experimental objects, and performs middle cerebral artery occlusion method (MCAO) to prepare rat model of cerebral ischemia. These rats were injected drugs intravenously 1-2 hours after ischemia, and a behavioral observation and scoring was conducted for each animal after 22-24 hours. After the behavioral observation, the experimental rats were euthanized and their brains were removed, cut to sections and stained with TTC for quantitative analysis, and the cerebral infarct volume % was calculated.
(§2) The experimental SD rat was weighed and anesthetized with chloral hydrate. After anesthesia, the limbs of the rat were fixed, and the rat was placed in a supine position, connected to the small-animal monitor, and monitored for important physiological parameters such as body temperature, blood pressure and heart rate, etc. The rat's neck was shaved and disinfected with 75% alcohol cotton ball. A middle incision of about 2 cm length was then made on the neck of the experimental rat, and the submandibular gland of the rat was bluntly separated while avoiding damage to the gland. Then, the left common carotid artery (CCA) of the experimental rat was bluntly separated, and the internal carotid artery (ICA) and external carotid artery (ECA) were carefully separated upward along the CCA. Any damage to vagus nerves was avoided during the separation. The CCA and ICA were clamped respectively with two artery clamps, and the distal end of the ECA was cut off and a silicone suture emboli was inserted into the ECA “port” to the ICA artery clamp, then the artery clamp was quickly loosened and the tip of the suture emboli was put in through the artery clamp quickly before clamping the ICA again. This step was repeated and the suture emboli was put in further until the black mark of the suture emboli reached the bifurcation of the ECA and ICA, and the tip of the suture emboli blocked the middle cerebral artery and then the ECA “port” and the suture emboli was tied tightly using a thread in order to prevent the “escape” of suture emboli or bleeding after the rat waked up. The artery clamps on the CCA and ICA were then loosed and removed to restore the tissue to its original position, and an appropriate amount of penicillin was applied to prevent wound infection. A medical suture needle with thread was used to suture, and the wound was disinfected using povidone-iodine again after the suturation. The experimental rats were monitored with the small-animal monitor to evaluate if their physiological parameters were normal, and the rats were placed on a small-animal electric blanket to keep their body temperature until they waked up, and placed in animal cages.
(§3) The drug to be tested was prepared as 3 mg/mL solution. The drug was dosed via tail vein 1-2 h after the suturation.
(§4) During the drug administration, the rat was fastened with a fastening device, and the drug to be tested was injected into the tail vein of the rat at 3 mg/kg using 1 mL syringe, the drug was injected slowly to reduce the cardiopulmonary load of the experimental rat.
(§5) The animals were divided into different test groups, with 6 rats for each group.
(§6) Drug groups S1 (NA1), S8 (beta-Ala-His-Gly) and S9 (Gly-beta-Ala-His): administered via tail vein after the suturation;
The behavioral observation and scoring were performed on each animal 22-24 h after the suturation.

[2] = tested on: rat model of cerebral ischemia (middle cerebral artery occlusion, MCAO); assay: MCAO rat cerebral ischemia model, TTC staining, cerebral infarct volume (Example 9); assay type: in vivo, SD rats; conditions: for Cerebral infarction volume (TTC quantification), mean value / Cerebral infarction volume (TTC quantification): 3 mg/kg tail vein 1-2 h after suturation, read 22-24 h; for Cerebral infarction volume (TTC quantification), mean value: mean of 6 rats
Experimental: as §1, §2, §3, §4, §5, §6
After behavioral observations, experimental rats were euthanized and their brains were removed. The brain tissue was transversely cut into 6 slices with a 2 mm thickness, then transferred to TTC staining solution, incubated in a 37° C. incubator without light for 10 min, and taken pictures. The TTC-stained brain tissue and the remaining non-stained brain tissue were stored at −20° C.
Quantitative analysis of photos after TTC staining was performed using Image J software. […]

[3] = Dose-effect experiment, body weight of MCAO model animals (Example 10); conditions: mean ± SD
Experimental: The establishment of rat model: the rats were placed in an anesthesia induction box filled with 3.0% isoflurane for anesthesia induction. Anesthesia-induced animals were transferred to the operating table, and anesthesia was maintained with 2.0%˜2.5% isoflurane at 200 mL/min using a small-animal gas anesthesia machine, and the eyelid reflex and pain response of the rats were observed. The surgery can be started only after the eyelid reflex response and the pain response on limbs and tail disappeared. • A. Isolating and exposing blood vessels: the skin of the surgical area was shaved, and the rat was placed under a surgical microscope. The skin of the rat was cut along the midline with ophthalmic scissors, with a cut of about 2 cm length. […]
Animals measured: all the surviving experimental animals planned to be measured;
Measurement time: the body weight was measured at least twice during the accommodation, and each batch of rats were weighed once on the day before the surgery and on the day of dissection to calculate the amount of drug administered and the anesthetic applied; the body weight was measured twice a week after the surgery.

[4] = tested on: experimental cerebral ischemia-reperfusion in animals; conditions: cynomolgus monkeys, preclinical ischemic stroke model; cited from earlier work
[5] = tested on: suture-embolized MCAO model, rat cerebral ischemic stroke; assay: Dose-effect experiment, Bederson score (Example 10); assay type: in vivo, Sprague-Dawley (SD) rats; conditions: 3 mg/kg group; 1 hour after ischemia, i.e. before dosing (model check); mean ± SD
Experimental: Measurement time: 1 hour after ischemia on the day of modeling;
Animals measured: all the animals survived in surgery;
Measurement method: the Bederson scoring standard was used to score animals.

[6] = tested on: suture-embolized MCAO model, rat cerebral ischemic stroke; assay: Dose-effect experiment, suture-embolized MCAO ischemia-reperfusion, TTC infarct size and inhibition rate (Example 10); assay type: in vivo, Sprague-Dawley (SD) rats
Experimental: The establishment of rat model: the rats were placed in an anesthesia induction box filled with 3.0% isoflurane for anesthesia induction. Anesthesia-induced animals were transferred to the operating table, and anesthesia was maintained with 2.0%˜2.5% isoflurane at 200 mL/min using a small-animal gas anesthesia machine, and the eyelid reflex and pain response of the rats were observed. The surgery can be started only after the eyelid reflex response and the pain response on limbs and tail disappeared. • A. Isolating and exposing blood vessels: the skin of the surgical area was shaved, and the rat was placed under a surgical microscope. The skin of the rat was cut along the midline with ophthalmic scissors, with a cut of about 2 cm length. Through the right neck of the rat, the muscle tissue of the right neck was bluntly isolated and opened with a microforcep to expose the right common carotid artery (CCA), and then isolated upward along the common carotid artery to further expose the external carotid artery (ECA) and internal carotid artery (ICA); • B. The ECA was ligated and the ICA was temporarily clamped; the proximal end and distal end of CCA were threaded separately, the distal end was tied tightly and the proximal end was tied with a loose knot, and a small incision was made between the two threads; • C. Inserting the suture emboli: A No. 4-0 suture emboli was inserted through the incision of CCA, pushed slowly and gently into the internal carotid artery, and stopped at the artery clamp of ICA, the pre-set thread was tied tightly (to avoid severe bleeding when pushing the suture emboli), then the artery clamp that blocked the blood flow of ICA was removed, and the suture emboli was immediately pushed into ICA until entering into the cranium. At the moment, one should be careful not to insert the suture emboli into the pterygopalatine artery, which is another branch of the internal carotid artery (the pterygopalatine artery is one of the extra-cranial branches of ICA; when the suture emboli entered the pterygopalatine artery to a depth of about 10 mm, it cannot be inserted further, at the moment one should slightly draw back the suture emboli, adjust the direction, and insert again); • D. Fixing the suture emboli and suturing the incision: if one felt slight resistance when the suture emboli was inserted about 18 mm depth from the bifurcation of the common carotid artery, it means that the tip of the suture emboli has entered into the cerebral anterior artery (ACA), and the side wall of the suture emboli has blocked the opening of the middle cerebral artery; at the moment, the insertion was terminated and the time was recorded. […]

[7] = tested on: patients with acute ischemic stroke (AIS) undergoing endovascular thrombectomy; conditions: 2.6 mg/kg intravenous injection; cited from earlier work
[8] = tested on: suture-embolized MCAO model, rat cerebral ischemic stroke; assay: Dose-effect experiment, rat neurological function score NSS (Example 10); assay type: in vivo, Sprague-Dawley (SD) rats; conditions: mean ± SD
Experimental: Measurement time: 24 hours before and after modeling;
Measurement method: a motor function test, sensory test, balance test, and reflex and abnormal behavior test were performed on animals, according to the rat neurological function score scale (NS S) for details.

[9] = 3 mg/kg group, D 0 = 1 day before surgery (baseline)
[10] = 3 mg/kg i.v., D 2 = 1 day after surgery

With Gly-[βAla]-His [S9] the “Behavioral score, statistical comparison with S1 (NA1)” value [1] was “not statistically different from S1”, the “Behavioral score, mean value” [1] was 2.0 and the “Behavioral score, mean value” ([1]; listed as Gly-beta-Ala-His) was 2.0±0.9. For the same substance, the Behavioral score ([1]; rat No. 1) was 3, the Behavioral score ([1]; rat No. 2) was 3 and the Behavioral score ([1]; rat No. 3) was 2. It also gave a Behavioral score ([1]; rat No. 4) of 2, a Behavioral score ([1]; rat No. 5) of 1 and a Behavioral score ([1]; rat No. 6) of 1. The “Infarct volume, statistical comparison with S1 (NA1)” value ([2]; 3 mg/kg tail vein) was “not statistically different from S1”, the “Cerebral infarction volume (TTC quantification), mean value” [2] was 0.197±0.059 and 0.197 and the “Cerebral infarction volume (TTC quantification)” value ([2]; rat No. 1) was 0.239. The “Cerebral infarction volume (TTC quantification)” value ([2]; rat No. 2) was 0.206, the “Cerebral infarction volume (TTC quantification)” value ([2]; rat No. 3) was 0.208 and the “Cerebral infarction volume (TTC quantification)” value ([2]; rat No. 4) was 0.263. For the same substance, the “Cerebral infarction volume (TTC quantification)” value ([2]; rat No. 5) was 0.171 and the “Cerebral infarction volume (TTC quantification)” value ([2]; rat No. 6) was 0.095.
For YGRKKRRQRRRKLSSIESDV [S1, Nerinetide], the “Weight D 0” value [3, 9] was 251.91 ± 8.69 g, the “Weight D 2” value [3, 10] was 203.7 ± 10.94 g and the “Behavioral score, mean value” [1] was 2.0. The “Behavioral score, mean value” ([1]; listed as NA1) was 2.0±0.6, the Behavioral score ([1]; rat No. 1) was 2 and the Behavioral score ([1]; rat No. 2) was 2. The Behavioral score ([1]; rat No. 3) was 2, the Behavioral score ([1]; rat No. 4) was 2 and the Behavioral score ([1]; rat No. 5) was 1. For the same substance, the Behavioral score ([1]; rat No. 6) was 3, the “Effect on infarct size of experimental cerebral ischemia-reperfusion” value [4] was “reduce the infarct size” and the Bederson [5] was 3 ± 0. For the same substance, the Infarct weight ([6]; 3 mg/kg i.v. once within 10 min after reperfusion, 24 h after treatment, mean ± SD) was 0.24 ± 0.02 g, the Infarct size ([6]; 3 mg/kg i.v. once within 10 min after reperfusion, TTC 24 h after treatment, infarct weight / whole brain weight, mean ± SD) was 16.74±3.14% and the “Inhibition rate of cerebral infarction” value ([6]; 3 mg/kg i.v., calculated from infarct size vs model control group) was 33%. The “Effect on patient's prognosis” value [7] was “improved patient's prognosis”, the “Cerebral infarction volume (TTC quantification), mean value” [2] was 0.157 and the “Cerebral infarction volume (TTC quantification)” value ([2]; rat No. 1) was 0.187. The “Cerebral infarction volume (TTC quantification)” value ([2]; rat No. 2) was 0.218, the “Cerebral infarction volume (TTC quantification)” value ([2]; rat No. 3) was 0.153 and the “Cerebral infarction volume (TTC quantification)” value ([2]; rat No. 4) was 0.145. For the same substance, the “Cerebral infarction volume (TTC quantification)” value ([2]; rat No. 5) was 0.107, the “Cerebral infarction volume (TTC quantification)” value ([2]; rat No. 6) was 0.134 and the “NSS score D 0” value [8, 9] was 0 ± 0. For the same substance, the “NSS score D 2” value [8, 10] was 8.00±0.76.
